Measured values: article PMC6663621 (Cancer, 2019)
“And” between values parts separate entries of the source, which are not always exact repeats. Identical values can stand only once. Like-named read-outs stand apart in the source and are kept apart here.

Assays:
clinical = conditions: human, plasma
[1] = plasma, Cohort 1, CC-486 dose 200 mg oral, Cycle 1 Day 1, actual values (n=2)
[2] = plasma, Cohorts 2 and 3, CC-486 dose 300 mg oral, Cycle 1 Day 1, mean ± SD

Row | Cmax (clinical; iv, 8 mg/m2) | Tmax (clinical; iv, 8 mg/m2) | clearance (clinical; iv, 8 mg/m2) | difference in dose-normalized exposure, apparent clearance, apparent volume of distribution or half-life (200 or 300 mg CC-486) | AUCINF [1] | Cl/F [1] | V/F [1] | t1/2 [1] | Cl/F [2] | V/F [2] | Tmax (clinical; oral) | Cmax (clinical; po, 200 mg) | Tmax (clinical; po, 200 mg) | Cmax (clinical; po, 300 mg) | Tmax (clinical; po, 300 mg) | Compound
1 | 0.455 ± 0.255 µg/mL | 4 h | 178 mL/min | – | – | – | – | – | – | – | – | – | – | – | – | C/C=C1\NC(=O)[C@H]2CSSCC/C=C/[C@H](CC(=O)N[C@H](C(C)C)C(=O)N2)OC(=O)[C@H](C(C)C)NC1=O [romidepsin]
2 | – | – | – | no difference | 0.538 µg·h/mL | 372 L/h and 373 L/h | 293 L and 319 L | 0.59 h | 922 ± 892 (10) L/h | 731 ± 557 (10) L | ~1 h | 0.324 ± 0.157 µg/mL | 1 h | 0.226 ± 0.13 µg/mL | 1.08 h | Nc1ncn([C@@H]2O[C@H](CO)[C@@H](O)[C@H]2O)c(=O)n1 [5-azacitidine]
